Reference: patent US20210251218A1, “BIO-HERBICIDE BASED ON ESSENTIAL OIL” (Université de Liège, priority 2018, published 2021)

Tested on: Bryophyte (adult stage)
Assay: Essay 1: post-emergence activity on Bryophyte
Format: in vivo
Settings: spraying 100 ml/m^2; 7 days after treatment; score 0 = healthy plant, 6 = dead plant; FIG. 3
Description: In order to assess the post-emergence activity of compositions according to the invention on Bryophyte (adult stage), different compositions according to the invention (HE1 and HE2—see Table 3) were tested by spraying (100 ml/m^2) on Bryophytes (adult stage). Pelargonic acid at a concentration of 30 g/L (PA) (Compo®) was used as a positive control and a composition without the active substance (essential oil) (SSA) was also tested. [table] For Bryophytes, it is recognized that the score of 0 represents a healthy and undamaged plant while a score of 6 represents a dead plant. These scores were determined 7 days after treatment with the different compositions.

CCCCCCCCC(=O)O [pelargonic acid] was tested, and the toxicity score was 6.
